In patent EP0193355B1, “Analgesic composition” (ELI LILLY AND COMPANY, priority 1985, dated 1986):
Counter-ions that a name gives are not always drawn.

System: Mouse Writhing
Test: mouse writhing assay (acetic acid-induced writhing)
Type: in vivo, albino male mice
Conditions: for Percent Inhibition of Writhing: Codeine Sulfate 10 mg/kg + Saline, oral; for Codeine Sulfate Induced Inhibition of Mouse Writhing ED₅₀: codeine sulfate subcutaneous, writhing assessed 30 minutes later
Description: Writhing, which is characterized by contraction of the abdominal musculature, extension of the hindlegs, and rotation of the trunk, was induced in albino male mice. The extent to which writhing is reduced following administration of a test compound is an indication of the analgesic activity of that compound.
Mice, weighing 18-24 grams, were fasted overnight and given the test compounds by gavage or subcutaneously. Writhing was then induced by the intraperitoneal administration of acetic acid (0.55 to 0.60 percent). Each treatment group consisted of five mice. The total number of writhes for the treatment group was determined during a 10-minute observation period starting five minutes after acetic acid administration. […] The results in the mouse writhing assay are presented either as the effective dose in mg/kg of the respective test compound required to inhibit induced writhing in the test animals by fifty percent (ED₅₀), or as the percent inhibition of writhing at the particular dose of the test compound administered.

SMILES | Percent Inhibition of Writhing (30 minutes after administration) | Percent Inhibition of Writhing (60 minutes after administration) | Percent Inhibition of Writhing (120 minutes after administration) | Percent Inhibition of Writhing (180 minutes after administration) | Percent Inhibition of Writhing (240 minutes after administration) | Percent Inhibition of Mouse Writhing (Codeine Sulfate 10 mg/kg oral, Fluoxetine Hydrochloride 0 mg/kg, writhing assessed 60 minutes later) | inhibition at 10 mg/kg (Mus musculus, 1 h, Codeine Sulfate 10 mg/kg oral, Fluoxetine Hydrochloride 0 mg/kg, writhing assessed 60 minutes later, read-out: Percent Inhibition of Mouse Writhing) | Codeine Sulfate Inhibition of Mouse Writhing ED₅₀ (codeine sulfate oral, alone (Fluoxetine Hydrochloride 0), writhing assessed 60 minutes later) | Codeine Sulfate Inhibition of Mouse Writhing ED₅₀ (codeine sulfate oral, simultaneously with Fluoxetine Hydrochloride 20 mg/kg oral, writhing assessed 60 minutes later) | Codeine Sulfate Induced Inhibition of Mouse Writhing ED₅₀ (alone (Fluoxetine Hydrochloride 0 mg/kg s.c.)) | Codeine Sulfate Induced Inhibition of Mouse Writhing ED₅₀ (simultaneously with Fluoxetine Hydrochloride 20 mg/kg s.c.) | Codeine Sulfate Inhibition of Mouse Writhing ED₅₀ (pretreatment Fluoxetine Hydrochloride (20 mg/kg) oral three hours before, codeine sulfate oral 15 minutes prior to assessment of writhing) | Codeine Sulfate Inhibition of Mouse Writhing ED₅₀ (pretreatment Saline oral three hours before, codeine sulfate oral 15 minutes prior to assessment of writhing) | ED₅₀ of codeine sulfate alone relative to the amount needed when 20 mg/kg of fluoxetine hydrochloride was concomitantly administered (subcutaneous, 30 minutes prior to the assessment of mouse writhing) | analgesic activity (fluoxetine hydrochloride alone, doses up to 160 mg/kg, 30-180 minutes before writhing was induced)
COc1ccc2c3c1O[C@H]1[C@@H](O)C=C[C@H]4[C@@H](C2)N(C)CC[C@@]341 [Codeine Sulfate, codeine sulfate] | 40% | 38% | 37% | 35% | 22% | no inhibition | 0% | 27.0 mg/kg | 15.4 mg/kg | 9.8 mg/kg | 2.8 mg/kg | 9.4 mg/kg | 18.6 mg/kg | 3.5 times | –
CNCCC(Oc1ccc(C(F)(F)F)cc1)c1ccccc1 (stereo not drawn) [fluoxetine hydrochloride, 3-(4-trifluoromethylphenoxy)-N-methyl-3-phenylpropylamine] | – | – | – | – | – | – | – | – | – | – | – | – | – | – | devoid of analgesic activity
